Assay results as given in patent US7282504B2, “Kinase inhibitors” (Amgen Inc., priority 2000, dated 2007).
pIC50: −log10 of the molar value.

How the values were obtained:
Type in all cases: biochemical
[1] = target: T1, PDGFRB (Homo sapiens, UniProt P09619); assay: Kinase inhibition, 33P transfer to plate-bound substrate: PDGFRB
T1 construct: Kinases are expressed as either kinase domains or full-length constructs; made in house
Text: (§1) The inhibitor compounds described herein are screened in the following manner. Kinases suitable for use in the following protocol to determine kinase activity of the compounds described herein include, but are not limited to: Lck, Lyn, Src, Fyn, Syk, Zap-70, Itk, Tec, Btk, EGFR, ErbB2, Kdr, Flt-1, Flt-3, Tek, c-Met, InsR, and AKT.
(§2) Kinases are expressed as either kinase domains or full-length constructs fused to glutathione S-transferase (GST) or polyHistidine tagged fusion proteins in either E. coli or Baculovirus-High Five expression systems. They are purified to near homogeneity by affinity chromatography essentially as previously described (Lehr et al., 1996; Gish et al., 1995). In some instances, kinases are co-expressed or mixed with purified or partially purified regulatory polypeptides prior to measurement of activity.
(§3) Kinase activity and inhibition are measured essentially by established protocols (Braunwalder et al., 1996). Briefly, The transfer of ^33PO4 from ATP to the synthetic substrates poly(Glu, Tyr) 4:1 or poly(Arg, Ser) 3:1 attached to the bioactive surface of microtiter plates serves as the basis to evaluate enzyme activity. After an incubation period, the amount of phosphate transferred is measured by first washing the plate with 0.5% phosphoric acid, adding liquid scintillant, and then counting in a liquid scintillation detector. The IC50 is determined by the concentration of compound that causes a 50% reduction in the amount of ^33P incorporated onto the substrate bound to the plate.

[2] = target: T2, Lck-1 (Homo sapiens, UniProt P06239); assay: Kinase inhibition, 33P transfer to plate-bound substrate: Lck-1
T2 construct: Kinases are expressed as either kinase domains or full-length constructs; made in house
Text: as §1, §2, §3

[3] = target: T3, IGFR-1 (Homo sapiens, UniProt P08069); assay: Kinase inhibition, 33P transfer to plate-bound substrate: IGFR-1
T3 construct: Kinases are expressed as either kinase domains or full-length constructs; made in house
Text: as §1, §2, §3

[4] = target: T4, KDR-1 (Homo sapiens, UniProt P35968); assay: Kinase inhibition, 33P transfer to plate-bound substrate: KDR-1
T4 construct: Kinases are expressed as either kinase domains or full-length constructs; made in house
Text: as §1, §2, §3

[5] = target: T5, EGFR-1 (Homo sapiens, UniProt P00533); assay: Kinase inhibition, 33P transfer to plate-bound substrate: EGFR-1
T5 construct: Kinases are expressed as either kinase domains or full-length constructs; made in house
Text: as §1, §2, §3

[6] = target: T6, Lck-2 (Homo sapiens, UniProt P06239); assay: Kinase inhibition, 33P transfer to plate-bound substrate: Lck-2
T6 construct: Kinases are expressed as either kinase domains or full-length constructs; made in house
Text: as §1, §2, §3

[7] = target: T7, ErbB2-1 (Homo sapiens, UniProt P04626); assay: Kinase inhibition, 33P transfer to plate-bound substrate: ErbB2-1
T7 construct: Kinases are expressed as either kinase domains or full-length constructs; made in house
Text: as §1, §2, §3

[8] = target: T8, Akt3-1 (Homo sapiens, UniProt Q9Y243); assay: Kinase inhibition, 33P transfer to plate-bound substrate: Akt3-1
T8 construct: Kinases are expressed as either kinase domains or full-length constructs; made in house
Text: as §1, §2, §3

[9] = target: T9, Met-1 (Homo sapiens, UniProt P08581); assay: Kinase inhibition, 33P transfer to plate-bound substrate: Met-1
T9 construct: Kinases are expressed as either kinase domains or full-length constructs; made in house
Text: as §1, §2, §3

[10] = target: T10, Itk-1 (Homo sapiens, UniProt Q08881); assay: Kinase inhibition, 33P transfer to plate-bound substrate: Itk-1
T10 construct: Kinases are expressed as either kinase domains or full-length constructs; made in house
T10 sequence (Q08881 1-620): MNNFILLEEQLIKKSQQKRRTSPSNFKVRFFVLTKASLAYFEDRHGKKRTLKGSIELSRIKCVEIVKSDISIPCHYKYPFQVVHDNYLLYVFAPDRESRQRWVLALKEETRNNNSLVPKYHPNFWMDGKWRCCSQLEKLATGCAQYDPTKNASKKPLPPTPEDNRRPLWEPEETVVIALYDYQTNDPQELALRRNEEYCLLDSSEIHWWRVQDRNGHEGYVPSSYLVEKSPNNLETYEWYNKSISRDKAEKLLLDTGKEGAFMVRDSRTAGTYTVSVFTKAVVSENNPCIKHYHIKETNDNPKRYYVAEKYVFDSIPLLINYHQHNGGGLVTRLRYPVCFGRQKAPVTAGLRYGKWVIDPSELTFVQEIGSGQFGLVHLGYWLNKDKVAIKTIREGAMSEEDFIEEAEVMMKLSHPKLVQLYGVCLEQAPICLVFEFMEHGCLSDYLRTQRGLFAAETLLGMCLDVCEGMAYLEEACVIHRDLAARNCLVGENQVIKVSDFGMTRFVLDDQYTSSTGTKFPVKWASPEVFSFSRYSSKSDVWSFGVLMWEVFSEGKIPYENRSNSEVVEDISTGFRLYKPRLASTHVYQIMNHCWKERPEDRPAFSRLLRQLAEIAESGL
Text: as §1, §2, §3

[11] = target: T11, Zap-1 (Homo sapiens, UniProt P43403); assay: Kinase inhibition, 33P transfer to plate-bound substrate: Zap-1
T11 construct: Kinases are expressed as either kinase domains or full-length constructs; made in house
T11 sequence (P43403 1-619): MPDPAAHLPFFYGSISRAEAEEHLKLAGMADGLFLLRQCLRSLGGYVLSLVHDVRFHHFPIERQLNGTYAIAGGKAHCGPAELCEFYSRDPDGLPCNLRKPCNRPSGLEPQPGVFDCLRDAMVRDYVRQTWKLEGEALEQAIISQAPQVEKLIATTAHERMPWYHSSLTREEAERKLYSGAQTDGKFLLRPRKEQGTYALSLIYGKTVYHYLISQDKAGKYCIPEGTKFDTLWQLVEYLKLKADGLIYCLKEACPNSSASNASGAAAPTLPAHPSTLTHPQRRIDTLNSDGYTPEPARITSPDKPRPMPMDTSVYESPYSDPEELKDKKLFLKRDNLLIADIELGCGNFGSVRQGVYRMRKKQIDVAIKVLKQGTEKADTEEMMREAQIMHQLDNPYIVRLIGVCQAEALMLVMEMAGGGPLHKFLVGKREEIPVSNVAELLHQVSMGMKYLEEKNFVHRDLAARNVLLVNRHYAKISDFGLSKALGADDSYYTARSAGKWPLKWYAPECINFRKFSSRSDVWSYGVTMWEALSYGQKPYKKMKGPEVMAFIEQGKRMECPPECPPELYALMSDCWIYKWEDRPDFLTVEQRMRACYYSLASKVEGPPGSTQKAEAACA
Text: as §1, §2, §3

[12] = target: T12, Ret-1 (Homo sapiens, UniProt P07949); assay: Kinase inhibition, 33P transfer to plate-bound substrate: Ret-1
T12 construct: Kinases are expressed as either kinase domains or full-length constructs; made in house
Text: as §1, §2, §3

[13] = target: T13, Src-1 (Homo sapiens, UniProt P12931); assay: Kinase inhibition, 33P transfer to plate-bound substrate: Src-1
T13 construct: Kinases are expressed as either kinase domains or full-length constructs; made in house
Text: as §1, §2, §3

[14] = target: T14, Fyn-1 (Homo sapiens, UniProt P06241); assay: Kinase inhibition, 33P transfer to plate-bound substrate: Fyn-1
T14 construct: Kinases are expressed as either kinase domains or full-length constructs; made in house
Text: as §1, §2, §3

[15] = target: T15, FGFR1-1 (Homo sapiens, UniProt P11362); assay: Kinase inhibition, 33P transfer to plate-bound substrate: FGFR1-1
T15 construct: Kinases are expressed as either kinase domains or full-length constructs; made in house
Text: as §1, §2, §3

[16] = target: T16, Flt1-1 (Homo sapiens, UniProt P17948); assay: Kinase inhibition, 33P transfer to plate-bound substrate: Flt1-1
T16 construct: Kinases are expressed as either kinase domains or full-length constructs; made in house
Text: as §1, §2, §3

[17] = target: T17, InsR-1 (Homo sapiens, UniProt P06213); assay: Kinase inhibition, 33P transfer to plate-bound substrate: InsR-1
T17 construct: Kinases are expressed as either kinase domains or full-length constructs; made in house
Text: as §1, §2, §3

T8 sequence (Q9Y243 whole entry, the tested form may be a part): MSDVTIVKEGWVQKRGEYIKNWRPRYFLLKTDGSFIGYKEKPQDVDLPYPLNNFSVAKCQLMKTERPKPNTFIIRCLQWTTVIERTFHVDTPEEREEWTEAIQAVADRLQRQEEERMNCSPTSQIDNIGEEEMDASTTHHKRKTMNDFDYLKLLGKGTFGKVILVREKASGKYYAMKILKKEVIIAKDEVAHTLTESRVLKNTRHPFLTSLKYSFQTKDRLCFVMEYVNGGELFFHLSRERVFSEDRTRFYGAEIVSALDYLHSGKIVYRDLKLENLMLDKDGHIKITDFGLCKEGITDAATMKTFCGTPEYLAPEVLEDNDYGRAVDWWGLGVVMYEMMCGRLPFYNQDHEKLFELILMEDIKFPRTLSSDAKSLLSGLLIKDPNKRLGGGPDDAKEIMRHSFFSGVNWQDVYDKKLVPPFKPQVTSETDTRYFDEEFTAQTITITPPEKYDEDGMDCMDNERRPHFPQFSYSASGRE
T3 sequence (P08069 31-1367): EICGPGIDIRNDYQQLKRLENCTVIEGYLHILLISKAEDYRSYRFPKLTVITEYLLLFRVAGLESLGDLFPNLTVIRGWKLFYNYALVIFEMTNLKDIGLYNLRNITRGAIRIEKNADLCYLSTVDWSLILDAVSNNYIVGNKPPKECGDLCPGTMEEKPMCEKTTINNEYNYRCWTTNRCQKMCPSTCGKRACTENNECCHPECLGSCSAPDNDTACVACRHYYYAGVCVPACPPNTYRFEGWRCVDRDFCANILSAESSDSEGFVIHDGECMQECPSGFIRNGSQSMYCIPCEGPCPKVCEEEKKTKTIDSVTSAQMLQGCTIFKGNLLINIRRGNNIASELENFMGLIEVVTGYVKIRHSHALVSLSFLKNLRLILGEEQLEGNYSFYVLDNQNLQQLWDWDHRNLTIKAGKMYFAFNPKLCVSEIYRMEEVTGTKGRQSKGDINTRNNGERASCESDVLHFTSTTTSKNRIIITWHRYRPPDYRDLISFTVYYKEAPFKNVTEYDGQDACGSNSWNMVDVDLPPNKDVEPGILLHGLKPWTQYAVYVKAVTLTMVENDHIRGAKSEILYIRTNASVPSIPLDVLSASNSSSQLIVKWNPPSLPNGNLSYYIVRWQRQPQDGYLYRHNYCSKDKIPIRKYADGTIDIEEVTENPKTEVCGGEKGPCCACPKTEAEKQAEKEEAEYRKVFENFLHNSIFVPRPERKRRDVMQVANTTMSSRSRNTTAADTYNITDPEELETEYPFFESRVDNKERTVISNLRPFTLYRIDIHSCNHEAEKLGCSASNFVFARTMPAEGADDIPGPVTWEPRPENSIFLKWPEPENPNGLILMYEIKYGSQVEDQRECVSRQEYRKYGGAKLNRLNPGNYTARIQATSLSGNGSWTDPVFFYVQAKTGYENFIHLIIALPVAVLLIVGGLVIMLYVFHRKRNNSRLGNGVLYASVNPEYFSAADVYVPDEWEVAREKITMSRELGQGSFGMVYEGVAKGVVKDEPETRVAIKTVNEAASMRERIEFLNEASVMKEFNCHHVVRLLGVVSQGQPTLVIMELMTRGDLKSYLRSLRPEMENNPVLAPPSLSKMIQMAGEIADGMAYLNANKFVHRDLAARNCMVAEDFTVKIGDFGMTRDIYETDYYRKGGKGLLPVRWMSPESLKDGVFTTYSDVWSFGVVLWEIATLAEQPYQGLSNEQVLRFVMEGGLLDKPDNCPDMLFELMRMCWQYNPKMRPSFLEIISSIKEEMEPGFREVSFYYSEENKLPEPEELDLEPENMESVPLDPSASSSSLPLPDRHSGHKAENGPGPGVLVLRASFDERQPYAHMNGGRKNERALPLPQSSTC
T9 sequence (P08581 25-1390): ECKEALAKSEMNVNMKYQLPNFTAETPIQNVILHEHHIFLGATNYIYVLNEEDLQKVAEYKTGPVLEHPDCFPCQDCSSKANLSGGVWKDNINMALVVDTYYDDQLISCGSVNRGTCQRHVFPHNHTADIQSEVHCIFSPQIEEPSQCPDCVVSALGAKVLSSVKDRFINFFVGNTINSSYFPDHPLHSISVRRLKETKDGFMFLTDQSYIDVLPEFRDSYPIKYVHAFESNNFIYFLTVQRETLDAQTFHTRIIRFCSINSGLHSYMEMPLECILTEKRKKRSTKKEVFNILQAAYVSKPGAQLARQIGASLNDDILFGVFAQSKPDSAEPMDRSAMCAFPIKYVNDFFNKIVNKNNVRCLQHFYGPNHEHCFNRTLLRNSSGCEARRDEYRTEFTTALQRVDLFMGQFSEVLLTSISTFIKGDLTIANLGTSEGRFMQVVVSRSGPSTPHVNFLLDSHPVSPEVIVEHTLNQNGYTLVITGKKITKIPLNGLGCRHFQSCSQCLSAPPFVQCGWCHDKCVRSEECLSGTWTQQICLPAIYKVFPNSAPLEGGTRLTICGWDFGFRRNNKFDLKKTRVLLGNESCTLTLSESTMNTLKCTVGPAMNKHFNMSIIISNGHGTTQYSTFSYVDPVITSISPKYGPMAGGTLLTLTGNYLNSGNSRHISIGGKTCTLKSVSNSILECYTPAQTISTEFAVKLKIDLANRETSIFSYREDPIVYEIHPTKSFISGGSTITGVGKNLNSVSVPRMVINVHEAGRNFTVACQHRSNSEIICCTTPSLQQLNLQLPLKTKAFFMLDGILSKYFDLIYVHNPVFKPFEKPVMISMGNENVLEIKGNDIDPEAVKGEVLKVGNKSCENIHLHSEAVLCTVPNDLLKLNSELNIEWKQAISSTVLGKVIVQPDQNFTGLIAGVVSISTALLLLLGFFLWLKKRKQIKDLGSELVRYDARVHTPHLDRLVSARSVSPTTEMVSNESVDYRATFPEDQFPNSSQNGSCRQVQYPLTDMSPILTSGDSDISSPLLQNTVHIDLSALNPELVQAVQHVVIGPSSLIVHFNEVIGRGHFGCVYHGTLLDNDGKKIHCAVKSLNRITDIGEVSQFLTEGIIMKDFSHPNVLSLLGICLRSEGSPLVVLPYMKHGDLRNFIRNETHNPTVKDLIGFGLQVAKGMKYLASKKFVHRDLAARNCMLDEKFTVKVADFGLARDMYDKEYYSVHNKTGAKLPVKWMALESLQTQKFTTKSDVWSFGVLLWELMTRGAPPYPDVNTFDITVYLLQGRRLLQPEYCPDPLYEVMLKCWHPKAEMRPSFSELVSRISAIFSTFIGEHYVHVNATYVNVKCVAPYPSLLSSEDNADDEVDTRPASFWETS
T7 sequence (P04626 23-1255): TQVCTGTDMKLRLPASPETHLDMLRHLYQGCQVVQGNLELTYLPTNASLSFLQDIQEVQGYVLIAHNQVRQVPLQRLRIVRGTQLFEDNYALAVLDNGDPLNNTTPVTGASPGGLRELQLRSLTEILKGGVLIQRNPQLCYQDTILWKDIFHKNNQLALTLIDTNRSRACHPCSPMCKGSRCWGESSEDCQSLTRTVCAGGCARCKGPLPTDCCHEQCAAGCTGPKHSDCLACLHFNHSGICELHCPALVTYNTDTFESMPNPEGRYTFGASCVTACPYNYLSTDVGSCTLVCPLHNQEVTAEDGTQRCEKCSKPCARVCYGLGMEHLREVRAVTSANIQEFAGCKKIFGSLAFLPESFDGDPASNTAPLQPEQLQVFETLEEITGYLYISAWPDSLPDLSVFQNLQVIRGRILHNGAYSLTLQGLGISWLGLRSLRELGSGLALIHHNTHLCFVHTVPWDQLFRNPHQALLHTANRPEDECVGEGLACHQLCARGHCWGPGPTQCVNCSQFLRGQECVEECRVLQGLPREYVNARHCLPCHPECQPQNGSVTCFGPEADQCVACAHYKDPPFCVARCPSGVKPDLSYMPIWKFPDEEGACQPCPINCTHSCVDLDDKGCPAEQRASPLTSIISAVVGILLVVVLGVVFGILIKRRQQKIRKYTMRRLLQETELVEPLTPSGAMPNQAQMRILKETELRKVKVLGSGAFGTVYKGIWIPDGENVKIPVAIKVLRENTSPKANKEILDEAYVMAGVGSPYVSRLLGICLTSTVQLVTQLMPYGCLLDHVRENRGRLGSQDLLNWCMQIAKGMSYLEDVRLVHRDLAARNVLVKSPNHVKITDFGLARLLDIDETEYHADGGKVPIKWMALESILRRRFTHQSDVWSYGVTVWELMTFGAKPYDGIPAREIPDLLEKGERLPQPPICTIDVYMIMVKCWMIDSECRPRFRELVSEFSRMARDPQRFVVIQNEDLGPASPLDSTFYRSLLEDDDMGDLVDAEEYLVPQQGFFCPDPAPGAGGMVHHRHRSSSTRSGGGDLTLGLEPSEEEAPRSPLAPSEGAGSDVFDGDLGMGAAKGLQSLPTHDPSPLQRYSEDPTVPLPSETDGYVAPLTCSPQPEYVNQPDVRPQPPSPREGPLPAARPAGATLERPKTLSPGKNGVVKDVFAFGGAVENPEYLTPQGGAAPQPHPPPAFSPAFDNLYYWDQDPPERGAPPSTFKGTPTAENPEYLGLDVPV
T2 sequence (P06239 whole entry, the tested form may be a part): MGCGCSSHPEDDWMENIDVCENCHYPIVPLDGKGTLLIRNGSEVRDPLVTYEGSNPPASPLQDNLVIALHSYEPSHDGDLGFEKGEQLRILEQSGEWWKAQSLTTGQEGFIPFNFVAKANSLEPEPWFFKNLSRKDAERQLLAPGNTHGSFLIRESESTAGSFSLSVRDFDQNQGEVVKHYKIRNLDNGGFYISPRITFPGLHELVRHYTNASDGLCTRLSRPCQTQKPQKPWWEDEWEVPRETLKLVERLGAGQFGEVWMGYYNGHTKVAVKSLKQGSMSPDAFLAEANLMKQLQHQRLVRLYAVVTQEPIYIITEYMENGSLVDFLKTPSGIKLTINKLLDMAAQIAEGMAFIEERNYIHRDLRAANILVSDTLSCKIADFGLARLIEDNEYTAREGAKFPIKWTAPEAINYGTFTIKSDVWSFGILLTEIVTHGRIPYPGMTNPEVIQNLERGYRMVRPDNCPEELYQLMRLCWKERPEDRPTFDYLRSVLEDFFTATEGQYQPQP
T6 sequence (P06239 whole entry, the tested form may be a part): as above

| pIC50 [1] | pIC50 [2] | pIC50 [3] | pIC50 [4] | pIC50 [5] | pIC50 [6] | pIC50 [7] | pIC50 [8] | pIC50 [9] | pIC50 [10] | pIC50 [11] | pIC50 [12] | pIC50 [13] | pIC50 [14] | pIC50 [15] | pIC50 [16] | pIC50 [17] | SMILES |
| --- | --- | --- | --- | --- | --- | --- | --- | --- | --- | --- | --- | --- | --- | --- | --- | --- | --- |
| > 5.82 | > 5.82 | > 5.82 | > 5.82 | > 5.82 | > 5.82 | > 5.82 | ≤ 5.00 | 5.30 to 5.82 | > 5.82 | 5.00 to 5.30 |  |  |  |  |  |  | COc1cc(Nc2nccc(Nc3ccc4c(cnn4Cc4ccccc4)c3)n2)cc(OC)c1OC [Compound 36] |
| > 5.82 | 5.00 to 5.30 | > 5.82 | > 5.82 | ≤ 5.00 | > 5.82 | ≤ 5.00 | ≤ 5.00 | ≤ 5.00 | ≤ 5.00 | ≤ 5.00 | 5.30 to 5.82 | 5.30 to 5.82 | 5.00 to 5.30 | 5.30 to 5.82 | 5.30 to 5.82 | ≤ 5.00 | COc1ccc(Nc2ccnc(Nc3ccc(OC)c(OC)c3)n2)cc1OC [Compound 56] |
|  | 5.00 to 5.30 |  | 5.00 to 5.30 | 5.00 to 5.30 | > 5.82 |  |  | 5.00 to 5.30 | 5.00 to 5.30 |  |  |  |  |  |  |  | COc1cc(Nc2ccnc(Nc3ccc(Oc4ccccc4)cc3)n2)cc(OC)c1OC [Compound 59] |

The next lines start with the molecule.

| SMILES | pIC50 [1] | pIC50 [2] | pIC50 [3] | pIC50 [4] | pIC50 [5] | pIC50 [6] | pIC50 [7] | pIC50 [8] | pIC50 [9] | pIC50 [10] | pIC50 [11] | pIC50 [12] | pIC50 [13] | pIC50 [14] | pIC50 [15] | pIC50 [16] | pIC50 [17] |
| --- | --- | --- | --- | --- | --- | --- | --- | --- | --- | --- | --- | --- | --- | --- | --- | --- | --- |
| COc1cc(Nc2ccnc(Nc3ccc4c(cnn4Cc4ccccc4)c3)n2)cc(OC)c1OC [Compound 37] | > 5.82 | > 5.82 | > 5.82 | 5.30 to 5.82 | 5.30 to 5.82 | > 5.82 | > 5.82 | ≤ 5.00 | 5.30 to 5.82 | 5.30 to 5.82 | ≤ 5.00 |  |  |  |  |  |  |
| Cc1cccc(Nc2nccc(Nc3cccc(Br)c3)n2)c1 [Compound 54] | 5.00 to 5.30 | ≤ 5.00 | > 5.82 | 5.00 to 5.30 | ≤ 5.00 | ≤ 5.00 | ≤ 5.00 | ≤ 5.00 | ≤ 5.00 | ≤ 5.00 |  |  |  |  |  |  |  |
| Clc1cccc(Nc2ccnc(Nc3cccc(Cl)c3)n2)c1 [Compound 57] | 5.00 to 5.30 | ≤ 5.00 | > 5.82 | > 5.82 | ≤ 5.00 | > 5.82 | ≤ 5.00 | ≤ 5.00 | 5.30 to 5.82 | 5.00 to 5.30 | ≤ 5.00 | > 5.82 |  |  | 5.00 to 5.30 | 5.00 to 5.30 | 5.00 to 5.30 |
| COc1cc(Nc2ccnc(Nc3ccc(OCc4ccccc4)cc3)n2)cc(OC)c1OC [Compound 58] |  | 5.00 to 5.30 |  | 5.00 to 5.30 | ≤ 5.00 | > 5.82 |  |  | 5.00 to 5.30 | 5.00 to 5.30 |  |  |  |  |  |  |  |
| Cc1cccc(Nc2ccnc(Nc3cccc(Br)c3)n2)c1 [Compound 60] | 5.30 to 5.82 | ≤ 5.00 | > 5.82 | 5.30 to 5.82 | ≤ 5.00 | > 5.82 |  | ≤ 5.00 | 5.00 to 5.30 | 5.30 to 5.82 |  |  |  |  |  |  |  |
